Read-outs that look alike come from different tables or passages of the source.
Assays:
[1] = target: T1, S29A PncC (Escherichia coli, UniProt P0A6G3, S29A); assay: biochemical; type: binding, E. coli
T1 construct: made in house; host or cells: E. coli BL21(DE3)

[2] = test system: T2, Y56A PncC; assay: Fluorescence-based thermal shift binding assay, Y56A PncC; design: species or system E. coli
T2 construct: made in house; host or cells: E. coli BL21(DE3)
Method: (§1) Protein melting temperature (Tm) was determined by fluorescence-based thermal shift assay using fluoroprobe SYPRO Orange dye (Invitrogen, Waltham, MA, USA). The assay was performed in a RotorGene 3000 real-time PCR (Corbett, Biocompare, San Francisco, CA, USA). The assay mixture contained 50 mM Hepes/NaOH, pH 7.5, 300 mM NaCl, 1 mM TCEP, 1 μM protein, Sypro orange at 10-fold dilution from a 5000-fold stock, and the various ligands at the tested concentrations, in a final volume of 25 μL. The mixtures were pre-heated at 40 °C for 5 s, then heated to 50 °C in 1 s, and finally heated from 50 to 99 °C with a heating-up rate of 0.5 °C every 5 s. The fluorescence intensity was measured with Ex/Em: 470/585 nm. The melting temperature was determined by taking the maximum point of the slope-derivative peak. Kd values were determined by plotting the percentage of unfolded proteins as a function of nucleotide concentration at a fixed temperature, after normalization of the unfolding curves. Fitting of the data was performed using the equations reported in [34]. Three independent experiments were carried out and values were reported as the means ± standard deviation.

[3] = test system: glutamine binding protein (GlnBP); conditions: GlnBP 3 µM, 96 µM nucleotide
Method: Steady-state measurements were performed using an ISS_K2 fluorometer (ISS, Urbana-Champaign, IL, USA), equipped with a one-cell temperature-controlled sample holder. […] Excitation and emission slit widths were fixed at 0.5 and 1.0 nm, respectively. […] The nucleotides were added to reach the indicated final concentration (from 0.18 to 96 µM) with an incubation interval of 10 min. Triplicate readings were done for each experimental point. Experiments were repeated three times (for NMN and NaMN) or twice (for all the other metabolites). Controls experiments were performed using the E. coli Glutamine Binding Protein (GlnBP, 3µM), with increasing concentration of NMN or NaMN, at the same conditions.
Percentages of reduction of fluorescence intensities compared to buffer, were calculated as follow: (normalized fluorescence in presence of analyte at a given [µM]/normalized fluorescence in presence of corresponding volume of buffer) × 100.

[4] = test system: T3, WT PncC (NMN deamidase); assay: Fluorescence-based thermal shift binding assay, wild-type PncC; design: species or system E. coli; conditions: 1 mM NMN
T3 construct: made in house; host or cells: E. coli BL21(DE3)
Method: as §1

[5] = target: T4, K61Q PncC (Escherichia coli, UniProt P0A6G3, K61Q); assay: biochemical; type: binding, E. coli
T4 construct: made in house; host or cells: E. coli BL21(DE3)

[6] = test system: T5, R142A PncC; assay: Fluorescence-based thermal shift binding assay, R142A PncC; design: species or system E. coli
T5 construct: made in house; host or cells: E. coli BL21(DE3)
Method: as §1

[7] = target: T1, S29A PncC; type: binding, E. coli
Excerpt: (§2) Experimental data were processed using the OriginPro 8.0 (OriginLab Corporation, Northampton, MA, USA). A non-linear curve analysis (Hill1 plot) was used for plotting the F0/F values in function of the metabolite concentration, to obtain the Kd value.

[8] = target: T4, K61Q PncC; type: binding, E. coli
Method: as §2
Percentage of the K61Q protein that would exist in complex with NMN in a cellular setting was calculated based on the Kd value, by using the equation: %=100/1+Kd/[NMN]

[9] = Thermal stability (melting temperature) of PncC proteins without ligand; type: physicochemical; conditions: absence of NMN
Method: as §1

## NC(=O)c1ccc[n+]([C@@H]2O[C@H](COP(=O)([O-])O)[C@@H](O)[C@H]2O)c1 [NMN, nicotinamide mononucleotide]
[1]; S29A PncC, 1 mM NMN
  Tm (+NMN): 95.5 °C
[1]; read-out: ΔTm
  ΔTm at 1000 µM: 10 °C
[2]; 1 mM NMN
  Tm (+NMN): 83.6 °C
[2]; 1.0 mM NMN
  Effect of NMN on Tm: not affected
[3]
  quenching of fluorescence of GlnBP: 4.3%
[4]
  Tm (+NMN): 92.2 °C
  ΔTm: 6.1 °C
[5]; K61Q PncC, 1 mM NMN
  Tm (+NMN): 86.2 °C
[5]; read-out: ΔTm
  ΔTm at 1000 µM: 18.7 °C
[6]; 1 mM NMN
  Tm (+NMN): 52.4 °C
[6]; 1.0 mM NMN
  Effect of NMN on Tm: not affected
[7]; S29A PncC, Trp fluorescence
  Hill coefficient (nH): 0.98± 0.1
[7]; nucleotide 0.185 µM
  S29A PncC fluorescence quenching (%) vs buffer: 0.48%
[7]; nucleotide 0.375 µM
  S29A PncC fluorescence quenching (%) vs buffer: 0.58%
[7]; nucleotide 0.75 µM
  S29A PncC fluorescence quenching (%) vs buffer: 2.58%
[7]; nucleotide 3 µM
  S29A PncC fluorescence quenching (%) vs buffer: 17.42%
[7]; nucleotide 6 µM
  S29A PncC fluorescence quenching (%) vs buffer: 17.55%
[7]; nucleotide 12 µM
  S29A PncC fluorescence quenching (%) vs buffer: 27.06%
[7]; nucleotide 24 µM
  S29A PncC fluorescence quenching (%) vs buffer: 37.52%
[7]; nucleotide 48 µM
  S29A PncC fluorescence quenching (%) vs buffer: 46.79%
[8]; K61Q PncC, Trp fluorescence
  Hill coefficient (nH): 1.3±0.2
[8]; nucleotide 0.185 µM
  K61Q PncC fluorescence quenching (%) vs buffer: 1.09%
[8]; nucleotide 0.375 µM
  K61Q PncC fluorescence quenching (%) vs buffer: 1.84%
[8]; nucleotide 0.75 µM
  K61Q PncC fluorescence quenching (%) vs buffer: 3.19%
[8]; nucleotide 1.5 µM
  K61Q PncC fluorescence quenching (%) vs buffer: 4.87%
[8]; nucleotide 3 µM
  K61Q PncC fluorescence quenching (%) vs buffer: 6.26%
[8]; nucleotide 6 µM
  K61Q PncC fluorescence quenching (%) vs buffer: 8.11%
[8]; nucleotide 12 µM
  K61Q PncC fluorescence quenching (%) vs buffer: 12.12%
[8]; nucleotide 24 µM
  K61Q PncC fluorescence quenching (%) vs buffer: 20.07%
[8]; nucleotide 48 µM
  K61Q PncC fluorescence quenching (%) vs buffer: 38.03%

## O=C(O)c1ccc[n+]([C@@H]2O[C@H](COP(=O)([O-])O)[C@@H](O)[C@H]2O)c1 [NaMN, nicotinic acid mononucleotide]
[3]
  quenching of fluorescence of GlnBP: 4.3%
[5]; K61Q PncC, at 70 °C
  Kd (thermal shift): not possible to determine Kd
[7]; nucleotide 0.185 µM
  S29A PncC fluorescence quenching (%) vs buffer: 1.79%
[7]; nucleotide 0.375 µM
  S29A PncC fluorescence quenching (%) vs buffer: 2.56%
[7]; nucleotide 0.75 µM
  S29A PncC fluorescence quenching (%) vs buffer: 6.47%
[7]; nucleotide 1.5 µM
  S29A PncC fluorescence quenching (%) vs buffer: 20.83%
[7]; nucleotide 3 µM
  S29A PncC fluorescence quenching (%) vs buffer: 30.74%
[7]; nucleotide 6 µM
  S29A PncC fluorescence quenching (%) vs buffer: 30.87%
[7]; nucleotide 12 µM
  S29A PncC fluorescence quenching (%) vs buffer: 40.52%
[7]; nucleotide 24 µM
  S29A PncC fluorescence quenching (%) vs buffer: 47.93%
[7]; nucleotide 48 µM
  S29A PncC fluorescence quenching (%) vs buffer: 52.28%
[8]; K61Q PncC, at 25 °C
  apparent Kd (Trp fluorescence): not possible to determine Kd
[8]; nucleotide 0.185 µM
  K61Q PncC fluorescence quenching (%) vs buffer: 0.71%
[8]; nucleotide 0.375 µM
  K61Q PncC fluorescence quenching (%) vs buffer: 1.11%
[8]; nucleotide 0.75 µM
  K61Q PncC fluorescence quenching (%) vs buffer: 2.05%
[8]; nucleotide 1.5 µM
  K61Q PncC fluorescence quenching (%) vs buffer: 2.12%
[8]; nucleotide 3 µM
  K61Q PncC fluorescence quenching (%) vs buffer: 2.82%
[8]; nucleotide 6 µM
  K61Q PncC fluorescence quenching (%) vs buffer: 2.80%
[8]; nucleotide 12 µM
  K61Q PncC fluorescence quenching (%) vs buffer: 4.14%
[8]; nucleotide 24 µM
  K61Q PncC fluorescence quenching (%) vs buffer: 4.9%
[8]; nucleotide 48 µM
  K61Q PncC fluorescence quenching (%) vs buffer: 7.14%
[8]; nucleotide 96 µM
  K61Q PncC fluorescence quenching (%) vs buffer: 10.68%

B1: S29A PncC: catalytically inactive S29A mutant of E. coli NMN deamidase PncC (protein)
chain: MTDSELMQLSEQVGQALKARGATVTTAEACTGGWVAKVITDIAGSSAWFERGFVTYSNEAKAQMIGVREETLAQHGAVSEPVVVEMAIGALKAARADYAVSISGIAGPDGGSEEKPVGTVWFAFATARGEGITRRECFSGDRDAVRRQATAYALQTLWQQFLQNT
modifications: left off: His tag (from the HisTrap HP purification; vector pCA24N), end not stated, state not stated
[9]
  Tm (melting temperature of the protein): 85.5 °C

B2: WT PncC: wild type NMN deamidase (PncC) from E. coli, recombinant (protein)
chain: MTDSELMQLSEQVGQALKARGATVTTAESCTGGWVAKVITDIAGSSAWFERGFVTYSNEAKAQMIGVREETLAQHGAVSEPVVVEMAIGALKAARADYAVSISGIAGPDGGSEEKPVGTVWFAFATARGEGITRRECFSGDRDAVRRQATAYALQTLWQQFLQNT
modifications: left off: His tag (from the HisTrap HP purification; vector pCA24N), end not stated, state not stated
notes: wild type NMN deamidase (PncC) from E. coli, recombinant
[9]
  Tm (melting temperature of the protein): 86.1 °C

B3: K61Q PncC: catalytically inactive K61Q mutant of E. coli NMN deamidase PncC (protein)
chain: MTDSELMQLSEQVGQALKARGATVTTAESCTGGWVAKVITDIAGSSAWFERGFVTYSNEAQAQMIGVREETLAQHGAVSEPVVVEMAIGALKAARADYAVSISGIAGPDGGSEEKPVGTVWFAFATARGEGITRRECFSGDRDAVRRQATAYALQTLWQQFLQNT
modifications: left off: His tag (from the HisTrap HP purification; vector pCA24N), end not stated, state not stated
[9]
  Tm (melting temperature of the protein): 67.5 °C

From publication PMC8231969, “Characterization of Two NMN Deamidase Mutants as Possible Probes for an NMN Biosensor” (International Journal of Molecular Sciences, 2021)
